According to patent US10993933B2, “Oral dosage forms of bendamustine” (ASTELLAS DEUTSCHLAND GMBH, priority 2010, dated 2021):
Counter-ions that a name gives are not always drawn.

Columns and labels:
[1] = cited from earlier work
[2] = B6D2F1-mice, absorption from the gastro-intestinal tract; cited from earlier work
[3] = Solubility of bendamustine hydrochloride in water and organic solvents; format: physicochemical
Description: Therefore it is not surprising that the oral bendamustine compositions, as investigated by Preiss et al. and Weber gave rise to relatively poor bioavailability results and a large inter-individual variability.

[4] = Bendamustine hydrochloride solubility in carriers (HPLC of supernatant); format: physicochemical
Method: Due to the necessity to determine if part of the bendamustine hydrochloride added to the vehicle is dissolved, in order to verify a possible degradation, an analytical procedure, from sample preparation to its analysis, was developed.
Essentially, it consisted in the preparation of a supersaturated solution of bendamustine hydrochloride in the oil: the minimum amount of bendamustine hydrochloride suitable to generate sedimentation of solid particle on the bottom of the vessel was added to the oil warmed at 40° C.; this solution was electromagnetically stirred for several days (about 4) at room temperature and then centrifuged at 3000 rpm for 15 minutes. The supernatant was analysed by HPLC versus a solution of bendamustine hydrochloride working standard (0,551 mg/ml).
Essentially, it consisted in the preparation of a supersaturated solution of bendamustine hydrochloride in the vehicle: the minimum amount of bendamustine hydrochloride suitable to generate sedimentation of solid particle on the bottom of the vessel was added to the oil heated to about 5° C. above its melting point; this solution was kept in static condition at this temperature overnight, to allow sedimentation on the bottom. The supernatant was analysed by HPLC versus a solution of API working standard (0.551 mg/ml).
In table 21.a below, the results of the analysis are reported expressed as mg of bendamustine hydrochloride completely dissolved in about 1 g of solution of the carrier selected.
Further samples for the solubility evaluation were prepared by adding, under stirring, a quantity of active ingredient (API) suitable to generate a phase segregation to a determined amount of each carrier. The samples were prepared at a temperature slightly above the melting point of each carrier (except for liquid vehicles) and kept at this temperature for about 5 hrs (estimated manufacturing process time). Where applicable, each sample was centrifuged to accelerate phase segregation; an amount of the supernatant, corresponding to the filling weight of a capsule (about 600 mg), was withdrawn and evaluated for assay to determine the amount of API actually dissolved.
Each solubility value is related to a specific temperature, corresponding to the value set for the filling into capsules (see table 14).

[5] = carrier CREMOPHOR A6 (Semisolid at room temperature), suspension weight 1015.3 mg
[6] = carrier CREMOPHOR A25 (Semisolid at room temperature), suspension weight 995.6 mg
[7] = carrier CREMOPHOR EL (Liquid at room temperature), suspension weight 1026.8 mg
[8] = carrier CREMOPHOR RH40 (Semisolid at room temperature), suspension weight 1000.4 mg
[9] = carrier LABRAFAC PG (Liquid at room temperature), suspension weight 1961.5 mg
[10] = carrier LABRAFIL M1944 CS (Liquid at room temperature), suspension weight 1011.7 mg
[11] = carrier LABRAFIL M2125 (Liquid at room temperature), suspension weight 765.2 mg
[12] = carrier LAUROGLYCOL 90 (Liquid at room temperature), suspension weight 993.9 mg
[13] = carrier LAUROGLYCOL FCC (Liquid at room temperature), suspension weight 1934.8 mg
[14] = carrier MIGLYOL 810 (Liquid at room temperature), suspension weight 602.8 mg
[15] = carrier MIGLYOL 812 (Liquid at room temperature), suspension weight 1044.1 mg
[16] = carrier MIGLYOL 829 (Liquid at room temperature), suspension weight 1865.0 mg
[17] = carrier MIGLYOL 840 (Liquid at room temperature), suspension weight 599.9 mg
[18] = carrier PLUROL oleique CC497 (Liquid at room temperature), suspension weight 1005.8 mg
[19] = carrier PLURONIC L44 NF INH (Liquid at room temperature), suspension weight 1987.1 mg
[20] = carrier SOFTIGEN 701 (Liquid at room temperature), suspension weight 1079.0 mg
[21] = carrier SOFTISAN 645 (Liquid at room temperature), suspension weight 1014.0 mg
[22] = carrier TRANSCUTOL HP (Liquid at room temperature), suspension weight 1003.1 mg

Cn1c(CCCC(=O)O)nc2cc(N(CCCl)CCCl)ccc21 [bendamustine hydrochloride]
mean oral bioavailability ([1]; 7 patients, oral capsules vs intravenous, 4.2-5.5 mg/kg): 57%
time to maximal plasma levels after oral administration ([1]; patients, oral capsules of 25 mg, 250-350 mg): ≤ 1 h
bioavailability [2]: about 40%
solubility in a range of organic solvents [3]: slightly or very slightly soluble
solubility in ethanol and methanol [3]: good solubility
solubility in water ([3]; pH of 2.0): sparingly soluble
Solubility ([4]; carrier BRIJ C2 (Semisolid), T 45 ° C.): 0.004 mg API/mg Solution
Solubility ([4]; carrier BRIJ L4 (Liquid), T 25 ° C.): 0.008 mg API/mg Solution
Solubility ([4]; carrier BRIJ L23 (Solid), T 45 ° C.): 0.004 mg API/mg Solution
Solubility ([4]; carrier BRIJ O10 (Semisolid), T 45 ° C.): 0.007 mg API/mg Solution
Solubility ([4]; carrier BRIJ O20 (Semisolid), T 45 ° C.): 0.006 mg API/mg Solution
Solubility ([4]; carrier BRIJ S10 (Solid), T 42 ° C.): 0.003 mg API/mg Solution
Solubility ([4]; carrier BRIJ S20 (Solid), T 50 ° C.): 0.008 mg API/mg Solution
Solubility ([4]; carrier BRIJ S721 (Solid), T 45 ° C.): 0.004 mg API/mg Solution
% API [4, 5]: 0.00%
API recovered [4, 5]: 0.00 mg
% API [4, 6]: 0.21%
API recovered [4, 6]: 2.10 mg
% API [4, 7]: 0.5%
API recovered [4, 7]: 5.13 mg
% API [4, 8]: 0.77%
API recovered [4, 8]: 7.72 mg
Solubility ([4]; carrier GELUCIRE 44/14 (Semisolid), T 45 ° C.): 0.004 mg API/mg Solution
Solubility ([4]; carrier GLYCEROX HE (Liquid), T 25 ° C.): 0.005 mg API/mg Solution
% API [4, 9]: 0.001%
API recovered [4, 9]: 0.01 mg
% API [4, 10]: 0.04%
API recovered [4, 10]: 0.38 mg
% API [4, 11]: 0.02%
API recovered [4, 11]: 0.17 mg
% API [4, 12]: 0.06%
API recovered [4, 12]: 0.61 mg
% API [4, 13]: 0.02%
API recovered [4, 13]: 0.33 mg
% API [4, 14]: 0.01%
API recovered [4, 14]: 0.04 mg
% API [4, 15]: 0.003%
API recovered [4, 15]: 0.03 mg
% API [4, 16]: 0.001%
API recovered [4, 16]: 0.03 mg
% API [4, 17]: 0.01%
API recovered [4, 17]: 0.06 mg
Solubility ([4]; carrier MIRJ S8 (Semisolid), T 42 ° C.): 0.010 mg API/mg Solution
Solubility ([4]; carrier MIRJ S40 (Solid), T 50 ° C.): 0.005 mg API/mg Solution
Solubility ([4]; carrier MIRJ S100 (Semisolid), T 50 ° C.): 0.009 mg API/mg Solution
% API [4, 18]: 0.21%
API recovered [4, 18]: 2.12 mg
Solubility ([4]; carrier PLURONIC 103 (Semisolid), T 45 ° C.): 0.002 mg API/mg Solution
Solubility ([4]; carrier PLURONIC F108 (Solid), T 70 ° C.): 0.006 mg API/mg Solution
Solubility ([4]; carrier PLURONIC L35 (Liquid), T 25 ° C.): 0.000 mg API/mg Solution
Solubility ([4]; carrier PLURONIC L43 (Liquid), T 25 ° C.): 0.000 mg API/mg Solution
% API [4, 19]: 0.18%
API recovered [4, 19]: 3.64 mg
Solubility ([4]; carrier PLURONIC L64 (Liquid), T 25 ° C.): 0.000 mg API/mg Solution
Solubility ([4]; carrier PLURONIC P85 (Semisolid), T 50 ° C.): 0.002 mg API/mg Solution
Solubility ([4]; carrier PLURONIC P105 (Semisolid), T 50 ° C.): 0.002 mg API/mg Solution
% API [4, 20]: 0.29%
API recovered [4, 20]: 5.42 mg
% API [4, 21]: 0.16%
API recovered [4, 21]: 1.60 mg
Solubility ([4]; carrier SOLUTOL HS15 (Semisolid), T 35 ° C.): 0.007 mg API/mg Solution
Solubility ([4]; carrier SPEZIOL TPGS (Semisolid), T 45 ° C.): 0.002 mg API/mg Solution
% API [4, 22]: 1.00%
API recovered [4, 22]: 10.01 mg
Solubility ([4]; carrier TWEEN 20 (Liquid), T 25 ° C.): 0.008 mg API/mg Solution
Solubility ([4]; carrier TWEEN 40 (Liquid), T 25 ° C.): 0.007 mg API/mg Solution
Solubility ([4]; carrier TWEEN 61 (Semisolid), T 45 ° C.): 0.019 mg API/mg Solution
Solubility ([4]; carrier TWEEN 65 (Liquid), T 45 ° C.): 0.007 mg API/mg Solution
Solubility ([4]; carrier TWEEN 81 (Liquid), T 25 ° C.): 0.004 mg API/mg Solution
bendamustine hydrochloride recovered in a supersaturated solution in liquid or semisolid oily vehicles ([4]; selected carriers): < 1%
